Measurements: patent US20230190707A1, “COMPOSITIONS AND METHODS FOR ENHANCING CANCER IMMUNOTHERAPY” (FRED HUTCHINSON CANCER CENTER, priority 2020, published 2023)

Legend:
[1] = system: B16-F10, MB49, MC38, and CT26; assay: RNA-seq splicing analysis, mouse tumor cell lines; format: cell-based; settings: doses that did not affect tumor cell growth in vitro
Protocol: (§1) Unless otherwise specified, cell lines were treated with splicing inhibitors at the indicated concentrations for 96 hours in vitro, harvested and washed three times with PBS in excess to remove all drug, and then used for downstream analyses and/or subsequent studies, including phenotyping, RNA-seq analyses, continued growth in vitro, or tumor challenge in vivo into syngeneic animals.
(§2) Bulk lung and colon were homogenized using a Qiagen TissueRuptor. For all tissues and cell types, RNA was extracted using an RNeasy kit (Qiagen, Frederick, Md.) and quantified using a NanoDrop 8000 (ThermoFisher Scientific). A minimum of 500 ng of high-quality RNA (as determined by Agilent Bioanalyzer) per sample or replicate was used for library preparation. Poly(A)-selected, strand-specific (dUTP method) Illumina libraries were prepared with a modified TruSeq protocol and sequenced on the Illumina HiSeq 2000 (˜100M 2×101 bp paired-end reads per sample or replicate).
RNA-seq analysis was performed as previously described (Dvinge, H., et al. (2014). Sample processing obscures cancer-specific alterations in leukemic transcriptomes. Proc Natl Acad Sci USA 111, 16802-16807, incorporated herein by reference in its entirety). […] Aligned reads from these two mapping steps were merged to generate final BAM files for all subsequent analyses. […]

RBM39 [2] = biological target: T1, RBM39 (Mus musculus, UniProt Q6PFH3+Q8VH51); assay: RBM39 protein in tissues after in vivo indisulam; settings: therapeutic indisulam doses
T1 construct: endogenous in cells; host or cells: B16-F10 (also MC38, CT26, LLC)
Protocol: (§3) Western blotting was performed as per standard techniques. Anti-RBM39 (Atlas Antibodies, Cat. HPA001591 or Bethyl laboratories, Cat. A300-291A) were used to detect RBM39 degradation. ADMA and SDMA levels were determined using antibodies from Cell Signaling Technologies (Cat. 13222S and Cat. 135225). Actin antibody (clone AC-15) was obtained from MilliporeSigma (Cat. A5441-.2ML). Densitometry of RBM39 and actin loading control was performed using ImageJ software in order to calculate RBM39 degradation IC50 values.
Mice were weighed weekly for weight-based drug dosing.

[3] = system: lung and colonic tissue, splenic T cells; assay: RNA-seq of non-tumor tissues from indisulam-treated animals; format: in vivo, mouse
Protocol: as §2
RNA-seq analysis was performed as previously described (Dvinge, H., et al. (2014). Sample processing obscures cancer-specific alterations in leukemic transcriptomes. Proc Natl Acad Sci USA 111, 16802-16807, incorporated herein by reference in its entirety). […] Aligned reads from these two mapping steps were merged to generate final BAM files for all subsequent analyses.
MISO v2.0 was used to quantify all expression of isoforms arising from exon skipping (cassette exons), competing 5′ splice site selection, competing 3′ splice site selection, and annotated intron retention. […]

RBM39 [4] = biological target: T1, RBM39; assay: RBM39 degradation, western blot densitometry; format: cell-based
Protocol: as §3

[5] = system: B16-F10, MC38, and CT26 cells; assay: In vivo tumor challenge with ex vivo indisulam-treated cells in syngeneic mice; design: species or system mouse
Protocol: as §1
Unless otherwise specified, syngeneic B6 or Balb/c mice were engrafted subcutaneously on bilateral flanks with MC38, B16-F10, CT26 or LLC tumor cells at the following doses: MC38 10^6 cells, B16-F10 0.5×10^6 cells, CT26 0.25×10^6 cells, LLC 0.25×10^6 cells. Tumors were measured serially twice or three times weekly and tumor volumes were estimated by length×width×height. Animals were monitored daily for survival and weighed twice weekly. Experimental endpoints mandating euthanasia were approved by the IACUC and included: animal lethargy, severe kyphosis or evidence of pain, difficulty with ambulation or feeding, tumor ulceration>1 cm or bleeding tumor, evidence of infected tumor, tumor volumes exceeding 2.5 cm^3, or animal total body weight loss>10% from baseline.

CD8^+ T cells = assay: Peptide:H-2K^b tetramer staining of tumor-draining lymph nodes; format: in vivo, mouse; settings: B16-F10 tumor-bearing mice, day 14

SMILES | splicing changes in mouse tumor cell lines [1] | RBM39 protein in tumoral as well as immune tissues in vivo (RBM39 [2]) | splicing changes in lung, colonic tissue and splenic T cells [3] | RBM39 protein following drug removal (RBM39 [4]; ex vivo 1 μM for four days followed by drug washout) | DC50 (RBM39 [4]; range across B16-F10, MC38, CT26, LLC cells, 24 hours, read-out: IC50 values for RBM39 degradation) [nM] | tumor growth following engraftment into syngeneic, immunocompetent mice ([5]; cells treated ex vivo 1 μM four days, drug washout) | animal survival ([5]; exposure to increasing drug concentrations (CT26; 10, 100, 1000 nM, 96 hours)) | frequencies of CD8^+ T cells recognizing splicing-derived peptides in tumor DLN (CD8^+ T cells)
CC(C)Oc1ccc(-c2c[nH]cc2CN(C)CCN)cc1 [MS-023] | dramatic changes in both alternative and constitutive splicing | – | – | – | – | – | – | –
NS(=O)(=O)c1ccc(S(=O)(=O)Nc2cccc3c(Cl)c[nH]c23)cc1 [indisulam] | dramatic changes in both alternative and constitutive splicing | on-target RBM39 protein reduction | only mild changes in splicing | sustained suppression of RBM39 protein | 60 to 1000 | strikingly durable growth inhibition | improved animal survival | increased frequencies of CD8^+ T cells
